Results published in US20240376124A1, “Macrocyclic Kinase Inhibitors” (Incyte Corporation, priority 2023, published 2024).
Values joined by “and” are separate entries in the source; they are usually repeats but may differ in a detail not shown here. Equal entries are not always repeated.

Tests used:
[1] = biological target: T1, catalytic domain (JH1, amino acids 826-1132) of human JAK2 (Homo sapiens, UniProt O60674); assay: JAK2 LanthaScreen JH1 binding assay; conditions: JAK2 JH1, 50 nM tracer; read-out: JH1BIND IC50
T1 construct: catalytic domain (JH1, amino acids 826-1132) of human JAK2; FLAG (N); purchased Carna Biosciences 08-445-20N; host or cells: baculovirus expression system
T1 sequence (O60674 826-1132): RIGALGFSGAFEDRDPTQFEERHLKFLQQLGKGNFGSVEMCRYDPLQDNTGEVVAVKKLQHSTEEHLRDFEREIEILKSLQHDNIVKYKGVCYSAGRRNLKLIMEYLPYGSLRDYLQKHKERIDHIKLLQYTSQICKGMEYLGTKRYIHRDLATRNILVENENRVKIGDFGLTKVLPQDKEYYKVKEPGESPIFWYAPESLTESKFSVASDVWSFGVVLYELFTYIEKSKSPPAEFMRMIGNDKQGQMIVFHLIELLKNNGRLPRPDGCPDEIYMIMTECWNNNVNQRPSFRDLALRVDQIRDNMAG
Experimental: Example A. JAK2 LanthaScreen […] Binding Assay
JAK2 JH1 binding assay utilizes catalytic domain (JH1, amino acids 826-1132) of human JAK2 expressed as N-terminal FLAG-tagged, biotinylated protein in a baculovirus expression system (Carna Biosciences, Product #08-445-20N). The assay was conducted in black 384-well polystyrene plates in a final reaction volume of 20 μL. JAK2 JH1 (1.5 nM) was incubated with compounds (100 nL serially diluted in DMSO) in the presence of 50 nM fluorescent JAK2-JH1 tracer and 0.5 nM Streptavidin-Tb cryptate (Cisbio Part #610SATLB) in assay buffer (50 mM Tris, pH=7.5, 10 mM MgCl2, 0.01% Brij-35, 0.1% BSA, 1 mM EGTA, […] and 5 mM DTT). Non-specific binding was accessed in the presence of 2 mM ATP. After incubation for 2 hours at 25° C., LanthaScreen signals were read on a PHERAstar FS plate reader (BMG LABTECH).
Data was analyzed with IDBS XLfit and GraphPad Prism 5.0 software using a four parameter dose response curve to determine IC50 for each compound.

[2] = biological target: T2, pseudo-kinase domain (JH2, amino-acids 536-812) of human Wild Type JAK2 (Homo sapiens, UniProt O60674, F794H/W659A/W777A); assay: JAK2 LanthaScreen JH2-WT Binding Assay; conditions: 50 nM tracer, read-out: JH2BIND_WT IC50
T2 construct: pseudo-kinase domain (JH2, amino-acids 536-812 with 3 surface mutations W659A, W777A, F794H); His (C); purchased BPS Bioscience 79463; host or cells: baculovirus expression system
T2 sequence (O60674 536-812 W659A/W777A/F794H): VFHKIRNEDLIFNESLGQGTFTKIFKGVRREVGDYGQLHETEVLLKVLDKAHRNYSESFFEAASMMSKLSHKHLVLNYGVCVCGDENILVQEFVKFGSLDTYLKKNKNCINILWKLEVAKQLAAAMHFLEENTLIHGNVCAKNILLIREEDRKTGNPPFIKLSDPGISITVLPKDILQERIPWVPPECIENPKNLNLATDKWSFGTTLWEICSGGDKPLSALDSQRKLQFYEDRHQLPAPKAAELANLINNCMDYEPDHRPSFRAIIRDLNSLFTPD
Experimental: Example B. JAK2 LanthaScreen JH2-WT Binding Assay
(§1) JAK2 JH2-WT binding assay utilizes pseudo-kinase domain (JH2, amino-acids 536-812 with 3 surface mutations W659A, W777A, F794H) of human Wild Type JAK2 expressed as C-terminal His-Avi-tagged, biotinylated protein in a baculovirus expression system (BPS Bioscience, Catalog #79463). The assay was conducted in black 384-well polystyrene plates in a final reaction volume of 20 μL. JAK2 JH2-WT (0.145 nM) was incubated with compounds (100 nL serially diluted in DMSO) in the presence of 50 nM Fluorescent JAK2-JH2 Tracer (MedChem Express Catalog #HY-102055) and 0.25 nM Streptavidin-Tb cryptate (Cisbio Part #610SATLB) in assay buffer (50 mM Tris, pH=7.5, 10 mM MgCl2, 0.01% Brij-35, 0.1% BSA, 1 mM EGTA, 5% Glycerol and 5 mM DTT). Non-specific binding was accessed in the presence of 2 mM ATP. After incubation for 1 hour at 25° C., LanthaScreen signals were read on a PHERAstar FS plate reader (BMG LABTECH). Data was analyzed with IDBS XLfit and GraphPad Prism 5.0 software using a four parameter dose response curve to determine IC50 for each compound.

[3] = biological target: T3, pseudo-kinase domain (JH2, amino-acids 536-812) of human V617F mutant JAK2 (Homo sapiens, UniProt O60674, F794H/V617F/W659A/W777A); assay: JAK2 LanthaScreen JH2-V617F Binding Assay; conditions: 50 nM tracer, read-out: JH2BINDING—V617F IC50
T3 construct: pseudo-kinase domain (JH2, amino-acids 536-812 with 3 surface mutations W659A, W777A, F794H); His (C); purchased BPS Bioscience 79498; host or cells: baculovirus expression system
T3 sequence (O60674 536-812 V617F/W659A/W777A/F794H): as the sequence (O60674 536-812 W659A/W777A/F794H) above, with V82F counted along it
Experimental: Example C. JAK2 LanthaScreen JH2-V617F Binding Assay
as §1, with “JH2-V617F” for “JH2-WT”, “V617F mutant” for “Wild Type”, “#79498).” for “#79463).”, “JH2-V617F (0.26” for “JH2-WT (0.145”

[4] = biological target: T4, catalytic domain (JH1, amino acids 808-1132) of human JAK2 (Homo sapiens, UniProt O60674); assay: JAK2 HTRF Enzyme Activity Assay; type: biochemical; conditions: ATP 30 μM; read-out: ENZ 30UMATP IC50
T4 construct: catalytic domain (JH1, amino acids 808-1132) of human JAK2; His (N); purchased BPS Bioscience 40450; host or cells: baculovirus expression system
T4 sequence (O60674 808-1132): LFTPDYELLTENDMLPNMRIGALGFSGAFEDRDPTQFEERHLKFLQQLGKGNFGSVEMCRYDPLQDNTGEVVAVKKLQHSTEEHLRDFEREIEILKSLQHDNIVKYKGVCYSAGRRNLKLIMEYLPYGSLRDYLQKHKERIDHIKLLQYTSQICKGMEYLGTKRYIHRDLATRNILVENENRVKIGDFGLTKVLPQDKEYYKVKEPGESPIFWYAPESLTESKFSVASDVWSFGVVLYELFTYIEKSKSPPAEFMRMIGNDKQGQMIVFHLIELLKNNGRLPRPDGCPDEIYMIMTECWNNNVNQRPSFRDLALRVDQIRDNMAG
Experimental: Example D. JAK2 HTRF Enzyme Activity Assay
JAK2 enzyme activity assays utilize catalytic domain (JH1, amino acids 808-1132) of human JAK2 expressed as N-terminal His-tagged protein in a baculovirus expression system (BPS Bioscience, Catalog #40450). The assays was conducted in black 384-well polystyrene plates in a final reaction volume of 20 μL. JAK2 (0.015 nM) was incubated with compounds (100 nL serially diluted in DMSO) in the presence of ATP (30 μM or 1 mM) and 500 nM Biotin-labeled EQEDEPEGDYFEWLE (SEQ ID NO.: 1) peptide (BioSource International, custom synthesis) in assay buffer (50 mM Tris, pH=7.5, 10 mM MgCl2, 0.01% Brij-35, 0.1% BSA, 1 mM EGTA, 5% Glycerol and 5 mM DTT) for 60 minutes at 25° C. The reactions were stopped by the addition of 10 μL of detection buffer (50 mM Tris, pH 7.8, 0.5 mg/mL BSA, 150 mM NaCl), supplemented with EDTA, LANCE Eu-W1024 anti-phosphotyrosine (PY20), (PerkinElmer, Catalog #AD0067) and Streptavidin SureLight APC (PerkinElmer Catalog #CR130-100), for a final concentration of 15 mM, 1.5 nM and 75 nM, respectively. HTRF signals were read after 30 minutes incubation at room temperature on a PHERAstar FS plate reader (BMG LABTECH). Data was analyzed with IDBS XLfit and GraphPad Prism 5.0 software using a four parameter dose response curve to determine IC50 for each compound. The compounds of the disclosure were tested in one or more of the assays described in Examples A-D, and the resulting data are shown in Table A.

[5] = from [2H]C([2H])([2H])n1c(=O)n([C@H]2CC[C@@](CC=C)(NC(=O)[C@H]3C[C@H]3F)CC2)c2c3c(-c4ccc(OCCC=C)cc4)cn(S(=O)(=O)c4ccccc4)c3ncc21, rcm bond, Grubbs catalyst 2nd generation, dichloromethane, 19.0 mM, 40.0 °C

Molecule: [2H]C([2H])([2H])n1c(=O)n2c3c4c(c(-c5cn(CC)nc5F)[nH]c4ncc31)-c1ccc(cc1)OCCC(O)CC[C@]1(NC(=O)[C@H]3C[C@H]3F)CC[C@@H]2CC1 (stereo partly drawn) [Example 9, (1R,2R)—N-((3^1S,3^4s)-2^7-(1-Ethyl-3-fluoro-1H-pyrazol-4-yl)-6-hydroxy-2^3-(methyl-d)-2^2-oxo-2^1,2^2,2^3,2^6-tetrahydro-9-oxa-2(8,1)-imidazo[4,5-d]pyrrolo[2,3-b]pyridina-1(1,4)-benzena-3(1,4)-cyclohexanacyclononaphane-3^4-yl)-2-fluorocyclopropane-1-carboxamide]
- IC50 [1]: 0.5 to 1 µM
- IC50 [2]: ≤ 0.01 µM
- IC50 [3]: ≤ 0.01 µM
- IC50 [4]: > 1 µM

Molecule: [2H]C([2H])([2H])n1c(=O)n2c3c4c(c(-c5cn(CC)nc5F)[nH]c4ncc31)-c1ccc(cc1)OCC/C=C/C[C@]1(NC(=O)[C@H]3C[C@H]3F)CC[C@@H]2CC1 [Example 12, (1R,2R)-N-((3^1S,3^4s,E)-2^7-(1-ethyl-3-fluoro-1H-pyrazol-4-yl)-2^3-(methyl-d3)-2^2-oxo-2^1,2^2,2^3,2^6-tetrahydro-9-oxa-2(8,1)-imidazo[4,5-d]pyrrolo[2,3-b]pyridina-1(1,4)-benzena-3(1,4)-cyclohexanacyclononaphan-5-en-3^4-yl)-2-fluorocyclopropane-1-carboxamide]
- IC50 [1]: 0.5 to 1 µM and > 1 µM
- IC50 [2]: ≤ 0.01 µM
- IC50 [3]: ≤ 0.01 µM
- IC50 [4]: 0.5 to 1 µM and > 1 µM

Molecule: [2H]C([2H])([2H])n1c(=O)n2c3c4c(c(-c5cn(C)nc5OC)[nH]c4ncc31)-c1ccc(cc1)OCCC/C=C/C[C@]1(NC(=O)C3CC3)CC[C@@H]2CC1 [Example 3, N-((3^1s,3^4s,E)-2^7-(3-Methoxy-1-methyl-1H-pyrazol-4-yl)-2^3-(methyl-d3)-2^2-oxo-2^1,2^2,2^3,2^6-tetrahydro-10-oxa-2(8,1)-imidazo[4,5-d]pyrrolo[2,3-b]pyridina-1(1,4)-benzena-3(1,4)-cyclohexanacyclodecaphan-5-en-3^4-yl)cyclopropanecarboxamide]
- IC50 [1]: > 1 µM
- IC50 [2]: ≤ 0.01 µM
- IC50 [3]: ≤ 0.01 µM
- IC50 [4]: > 1 µM

Molecule: [2H]C([2H])([2H])n1c(=O)n2c3c4c(c(-c5cn(C(C)C)nc5F)[nH]c4ncc31)-c1ccc(cc1)OCC/C=C/C[C@]1(NC(=O)[C@H]3C[C@H]3F)CC[C@@H]2CC1 [Example 13, (1R,2R)-2-fluoro-N-((3^1S,3^4s,E)-2^7-(3-fluoro-1-isopropyl-1H-pyrazol-4-yl)-2^3-(methyl-d3)-2^2-oxo-2^1,2^2,2^3,2^6-tetrahydro-9-oxa-2(8,1)-imidazo[4,5-d]pyrrolo[2,3-b]pyridina-1(1,4)-benzena-3(1,4)-cyclohexanacyclononaphan-5-en-3^4-yl)cyclopropane-1-carboxamide]
- IC50 [1]: > 1 µM
- IC50 [2]: ≤ 0.01 µM
- IC50 [3]: ≤ 0.01 µM
- IC50 [4]: > 1 µM

Molecule: [2H]C([2H])([2H])n1c(=O)n2c3c4c(cn(S(=O)(=O)c5ccccc5)c4ncc31)-c1ccc(cc1)OCCC=CC[C@]1(NC(=O)[C@H]3C[C@H]3F)CC[C@@H]2CC1
- ring closure, yield of all isomers [5]: 98%

Molecule: N-((3^1r,3^4s)-2^7-(3-Methoxy-1-methyl-1H-pyrazol-4-yl)-2^3-(methyl-d3)-2^2-oxo-2^1,2^2,2^3,2^6-tetrahydro-8-oxa-2(8,1)-imidazo[4,5-d]pyrrolo[2,3-b]pyridina-1(1,4)-benzena-3(1,4)-cyclohexanacyclooctaphane-3^4-yl)cyclopropanecarboxamide [Example 5]
- IC50 [1]: > 1 µM
- IC50 [2]: ≤ 0.01 µM
- IC50 [3]: ≤ 0.01 µM
- IC50 [4]: > 1 µM

Molecule: N-((3^1r,3^4s)-2^7-(3-Methoxy-1-methyl-1H-pyrazol-4-yl)-2^3-(methyl-d3)-2^2-oxo-2^1,2^2,2^3,2^6-tetrahydro-9-oxa-2(8,1)-imidazo[4,5-d]pyrrolo[2,3-b]pyridina-1(1,4)-benzena-3(1,4)-cyclohexanacyclononaphane-3^4-yl)cyclopropanecarboxamide [Example 4]
- IC50 [1]: > 1 µM
- IC50 [2]: ≤ 0.01 µM
- IC50 [3]: ≤ 0.01 µM
- IC50 [4]: > 1 µM

Molecule: [2H]C([2H])([2H])n1c(=O)n2c3c4c(c(-c5cn(C)nc5OC)[nH]c4ncc31)-c1ccc(cc1)C1(/C=C/C[C@]3(NC(=O)C4CC4)CC[C@@H]2CC3)CC1 [Example 6, N-((1′s,4′s,E)-7′-(3-Methoxy-1-methyl-1H-pyrazol-4-yl)-3′-(methyl-d3)-2′-oxospiro[cyclopropane-1,7′-2(8,1)-imidazo[4,5-d]pyrrolo[2,3-b]pyridina-1(1,4)-benzena-3(1,4)-cyclohexanacycloheptaphanen]-5′-en-4′-yl)cyclopropanecarboxamide]
- IC50 [1]: > 1 µM
- IC50 [2]: ≤ 0.01 µM
- IC50 [3]: ≤ 0.01 µM
- IC50 [4]: > 1 µM
